Assay results as given in patent US11492325B2, “Compounds as inhibitors of sodium channels” (Human BioMolecular Research Institute, priority 2016, dated 2022).
Like-named read-outs stand apart in the source and are kept apart here.

Columns and labels:
[1] = system: cardiomyocytes derived from hiPSCs from a LQTS3 patient
[2] = system: normal human induced pluripotent stem cell (hiPSC) cardiomyocyte; details: for WT-Fold Prolongation: APD
[3] = LQT-3 cardiomyocytes, AP shortening
[4] = WT cardiomyocytes, AP prolongation

With `Cc1cccc(C)c1OCC(C)NCCc1ccccc1` (centres unmarked) [Compound 44, 1-(2,6-dimethylphenoxy)-N-(2-phenylethyl)propan-2-amine] the “LQT-Cessation Dose” value ([1]; LQT3 cardiomyocytes) was 7.4 µM, the “LQT-Fold Shortening” value ([1]; LQT3 cardiomyocytes) was 1.7 and the “WT-Fold Prolongation” value ([2]; normal hiPSC cardiomyocytes) was 2.698. The “Cessation of Beating” value ([2]; normal hiPSC cardiomyocytes) was 133 µM and the “WT-EAD Dose” value ([2]; normal hiPSC cardiomyocytes) was 22 µM.

For `Cc1cc(C)cc(OCC(N)c2ccc3ccccc3c2)c1` (centres unmarked) [Compound 135], the “LQT-Fold Shortening” value ([1]; LQT-3 cardiomyocytes) was 1.667, the “LQT-Shortening Dose” value ([1]; LQT-3 cardiomyocytes) was 133 µM and the “LQT-EC50 (μM) Shortening” value [1, 3] was “Shortens”. For the same compound, the “LQT-Cessation Dose” value ([1]; LQT-3 cardiomyocytes, cessation of beating) was 200 µM and the “WT-EC50 (μM) Prolongation” value [2, 4] was “Does Not Prolong AP”.

With `COCCNC(COc1ccc(C)nc1C)c1ccccc1` (centres unmarked) [Compound 125] the “LQT-Fold Shortening” value ([1]; LQT-3 cardiomyocytes) was “Does Not Shorten”, the “LQT-Shortening Dose (μM)” value ([1]; LQT-3 cardiomyocytes) was “Does Not Shorten” and the “LQT-EC50 (μM) Shortening” value [1, 3] was “Does Not Shorten”. For the same compound, the “WT-EC50 (μM) Prolongation” value [2, 4] was “Does Not Prolong AP”.

With `Cc1cccc(Cl)c1OCC(N)C1CCCCC1.Cl` (centres unmarked) [Compound 76] the “LQT-Cessation Dose” value ([1]; LQT3 cardiomyocytes) was 66 µM, the “LQT-Fold Shortening” value ([1]; LQT3 cardiomyocytes) was 1.244 and the “WT-Fold Prolongation” value ([2]; normal hiPSC cardiomyocytes) was “None”. The “Cessation of Beating” value ([2]; normal hiPSC cardiomyocytes) was 66 µM and the “WT-Prolongation Dose” value ([2]; normal hiPSC cardiomyocytes) was “None”.

`Cc1cc(OCC(N)c2ccccc2)cc(C)n1.Cl` (centres unmarked) [Compound 79] was tested, and the “LQT-Cessation Dose” value ([1]; LQT3 cardiomyocytes) was “None”, the “LQT-Fold Shortening” value ([1]; LQT3 cardiomyocytes) was 1.145 and the “WT-Fold Prolongation” value ([2]; normal hiPSC cardiomyocytes) was 5.06. The “Cessation of Beating” value ([2]; normal hiPSC cardiomyocytes) was “None” and the “WT-EAD Dose” value ([2]; normal hiPSC cardiomyocytes) was 200 µM.

For `CNC(COc1cccc(C)c1C)c1ccccc1` (centres unmarked) [Compound 34, 2-(2,3-dimethylphenoxy)-N-methyl-1-phenylethanamine], the “LQT-Cessation Dose” value ([1]; LQT3 cardiomyocytes) was 66 µM, the “LQT-Fold Shortening” value ([1]; LQT3 cardiomyocytes) was 1.29 and the “WT-Fold Prolongation” value ([2]; normal hiPSC cardiomyocytes) was “None”. For the same compound, the “Cessation of Beating” value ([2]; normal hiPSC cardiomyocytes) was 133 µM and the “WT-Prolongation Dose” value ([2]; normal hiPSC cardiomyocytes) was “None”.

With `Cc1ccc(OCC(C)N)c(C)c1.Cl` (centres unmarked) [Compound 64] the “LQT-Cessation Dose” value ([1]; LQT3 cardiomyocytes) was “None”, the “LQT-Fold Shortening” value ([1]; LQT3 cardiomyocytes) was “None” and the “LQT-Shortening Dose” value ([1]; LQT3 cardiomyocytes) was “None”. For the same compound, the “WT-Fold Prolongation” value ([2]; normal hiPSC cardiomyocytes) was 2.621, the “Cessation of Beating” value ([2]; normal hiPSC cardiomyocytes) was “None” and the “WT-EAD Dose” value ([2]; normal hiPSC cardiomyocytes) was 133 µM.

In the case of `Cc1cccc2c1OCC(C1CC1)NC2.Cl` (centres unmarked) [Compound 74], the “LQT-Cessation Dose” value ([1]; LQT3 cardiomyocytes) is reported as “None”, the “LQT-Fold Shortening” value ([1]; LQT3 cardiomyocytes) is reported as “None” and the “LQT-Shortening Dose” value ([1]; LQT3 cardiomyocytes) is reported as “None”. For the same compound, the “WT-Fold Prolongation” value ([2]; normal hiPSC cardiomyocytes) was 2.633, the “Cessation of Beating” value ([2]; normal hiPSC cardiomyocytes) was “None” and the “WT-EAD Dose” value ([2]; normal hiPSC cardiomyocytes) was 133 µM.

In the case of `Cc1cccc(C)c1OC[C@H](N)C1CC1.Cl` [Compound 61], the “LQT-Fold Shortening” value ([1]; LQT3 cardiomyocytes) is reported as “None”, the “LQT-Shortening Dose” value ([1]; LQT3 cardiomyocytes) is reported as “None” and the “LQT-Cessation Dose” value ([1]; human, 5 min) is reported as 200 µM. For the same compound, the “Cessation of Beating” value [2] was “None”, the “WT-Fold Prolongation” value ([2]; normal hiPSC cardiomyocytes) was 3.829 and the “WT-EAD Dose” value ([2]; human, 5 min) was 66 µM.

For `COc1ccccc1OCC(C)N` (centres unmarked) [Compound 52, 1-(2-Methoxyphenoxy)propan-2-amine], the “LQT-Cessation Dose” value ([1]; LQT3 cardiomyocytes) was “None”, the “LQT-Fold Shortening” value ([1]; LQT3 cardiomyocytes) was “None” and the “LQT-Shortening Dose” value ([1]; LQT3 cardiomyocytes) was “None”. For the same compound, the “WT-Fold Prolongation” value ([2]; normal hiPSC cardiomyocytes) was 2.499, the “Cessation of Beating” value ([2]; normal hiPSC cardiomyocytes) was “None” and the “WT-EAD Dose” value ([2]; normal hiPSC cardiomyocytes) was 133 µM.

For `Cc1ccc(OCC(N)c2ccccc2)cc1C.Cl` (centres unmarked) [Compound 75], the “LQT-Cessation Dose” value ([1]; LQT3 cardiomyocytes) was 66 µM, the “LQT-Fold Shortening” value ([1]; LQT3 cardiomyocytes) was 1.370 and the “WT-Fold Prolongation” value ([2]; normal hiPSC cardiomyocytes) was “None”. For the same compound, the “Cessation of Beating” value ([2]; normal hiPSC cardiomyocytes) was 66 µM and the “WT-Prolongation Dose” value ([2]; normal hiPSC cardiomyocytes) was “None”.

In the case of `C[C@@H](N)COc1ccccc1Cl` [Compound 58], the “LQT-Cessation Dose” value ([1]; LQT3 cardiomyocytes) is reported as “None”, the “LQT-Fold Shortening” value ([1]; LQT3 cardiomyocytes) is reported as “None” and the “LQT-Shortening Dose” value ([1]; LQT3 cardiomyocytes) is reported as “None”. For the same compound, the “WT-Fold Prolongation” value ([2]; normal hiPSC cardiomyocytes) was 2.392, the “Cessation of Beating” value ([2]; normal hiPSC cardiomyocytes) was “None” and the “WT-EAD Dose” value ([2]; normal hiPSC cardiomyocytes) was 200 µM.

For `Cc1cccc(C)c1OCC(C)Nc1ccccc1` (centres unmarked) [Compound 43, 1-(2,6-dimethylphenoxy)-N-phenylpropan-2-amine], the “LQT-Cessation Dose” value ([1]; LQT3 cardiomyocytes) was “None”, the “LQT-Fold Shortening” value ([1]; LQT3 cardiomyocytes) was “None” and the “LQT-Shortening Dose” value ([1]; LQT3 cardiomyocytes) was “None”. For the same compound, the “WT-Fold Prolongation” value ([2]; normal hiPSC cardiomyocytes) was “None”, the “Cessation of Beating” value ([2]; normal hiPSC cardiomyocytes) was “None” and the “WT-Prolongation Dose” value ([2]; normal hiPSC cardiomyocytes) was “None”.

For `Cc1cc(C)cc(OCC(NCCO)c2ccccc2)c1` (centres unmarked) [Compound 92], the “LQT-Cessation Dose” value ([1]; LQT3 cardiomyocytes) was 66 µM, the “LQT-Fold Shortening” value ([1]; LQT3 cardiomyocytes) was 1.41 and the “WT-Fold Prolongation” value ([2]; normal hiPSC cardiomyocytes) was “None”. For the same compound, the “Cessation of Beating” value ([2]; normal hiPSC cardiomyocytes) was 66 µM and the “WT-Prolongation Dose” value ([2]; normal hiPSC cardiomyocytes) was “None”.

`COCCNC(COc1cnccc1C(F)(F)F)c1ccccc1` (centres unmarked) [Compound 124] was tested, and the “LQT-Fold Shortening” value ([1]; LQT-3 cardiomyocytes) was 1.601, the “LQT-EC50 (μM) Shortening” value [1, 3] was “Shortens” and the “WT-EC50 (μM) Prolongation” value [2, 4] was “Does Not Prolong AP”.

For `Cc1ccc(OCC(N)c2ccccc2)c(C)n1` (centres unmarked) [Compound 119], the “LQT-Fold Shortening” value ([1]; LQT-3 cardiomyocytes) was 1.123, the “LQT-EC50 (μM) Shortening” value [1, 3] was “Shortens” and the “WT-EC50 (μM) Prolongation” value [2, 4] was “Does Not Prolong AP”. For the same compound, the “WT-Cessation Dose (μM)” value ([2]; WT cardiomyocytes, cessation of beating) was “No cessation of beating”.

In the case of `CC(N)COc1ccccc1C(F)(F)F` (centres unmarked) [Compound 51, 1-(2-(Trifluoromethyl)phenoxy)propan-2-amine], the “LQT-Cessation Dose” value ([1]; LQT3 cardiomyocytes) is reported as “None”, the “LQT-Fold Shortening” value ([1]; LQT3 cardiomyocytes) is reported as 1.37 and the “WT-Fold Prolongation” value ([2]; normal hiPSC cardiomyocytes) is reported as “None”. For the same compound, the “Cessation of Beating” value ([2]; normal hiPSC cardiomyocytes) was “None” and the “WT-Prolongation Dose” value ([2]; normal hiPSC cardiomyocytes) was “None”.

With `CCNC(C)COc1c(C)cccc1C` (centres unmarked) [Compound 41, 1-(2,6-dimethylphenoxy)-N-ethylpropan-2-amine] the “LQT-Cessation Dose” value ([1]; LQT3 cardiomyocytes) was “None”, the “LQT-Fold Shortening” value ([1]; LQT3 cardiomyocytes) was “None” and the “LQT-Shortening Dose” value ([1]; LQT3 cardiomyocytes) was “None”. The “WT-Fold Prolongation” value ([2]; normal hiPSC cardiomyocytes) was 5.338, the “Cessation of Beating” value ([2]; normal hiPSC cardiomyocytes) was “None” and the “WT-EAD Dose” value ([2]; normal hiPSC cardiomyocytes) was 133 µM.

In the case of `Cc1cccc(C)c1OCC(O)C(C)(C)C` (centres unmarked) [Compound 22], the “LQT-Cessation Dose” value ([1]; LQT3 cardiomyocytes) is reported as “None” and the “LQT-Fold Shortening” value ([1]; LQT3 cardiomyocytes) is reported as 1.29.

For `CC(=O)NC(C)COc1c(C)cccc1C` (centres unmarked) [Compound 53], the “LQT-Cessation Dose” value ([1]; LQT3 cardiomyocytes) was “None”, the “LQT-Fold Shortening” value ([1]; LQT3 cardiomyocytes) was “None” and the “LQT-Shortening Dose” value ([1]; LQT3 cardiomyocytes) was “None”. The “WT-Fold Prolongation” value ([2]; normal hiPSC cardiomyocytes) was “None”, the “Cessation of Beating” value ([2]; normal hiPSC cardiomyocytes) was “None” and the “WT-Prolongation Dose” value ([2]; normal hiPSC cardiomyocytes) was “None”.

For `CC(N)COc1ccccn1` (centres unmarked) [Compound 48, (Pyridin-2-yloxy)propan-2-amine], the “LQT-Cessation Dose” value ([1]; LQT3 cardiomyocytes) was “None”, the “LQT-Fold Shortening” value ([1]; LQT3 cardiomyocytes) was “None” and the “LQT-Shortening Dose” value ([1]; LQT3 cardiomyocytes) was “None”. For the same compound, the “LQT-EC50 (μM) Shortening” value ([1]; pyridyl derivatives) was “Does Not Shorten”, the “LQT-Fold Shortening” value ([1]; pyridyl derivatives) was “Does Not Shorten” and the “LQT-Shortening Dose” value ([1]; pyridyl derivatives) was “Does Not Shorten”. For the same compound, the “WT-Fold Prolongation” value ([2]; normal hiPSC cardiomyocytes) was “None”, the “Cessation of Beating” value ([2]; normal hiPSC cardiomyocytes) was “None” and the “WT-Prolongation Dose” value ([2]; normal hiPSC cardiomyocytes) was “None”. The “WT-Cessation Dose” value ([2]; pyridyl derivatives) was “No cessation of beating” and the “WT-EC50 (μM) Prolongation” value ([2]; pyridyl derivatives) was “Does Not Prolong AP”.

Compound `Cc1cc(C)cc(OCC(N)c2ccccc2)c1` (centres unmarked) [Compound 104b] has an EC50 ([1]; read-out: LQT-EC50 (μM)-Shortening, 'No AP' wraps to 'No AP shortening') of 0.87 µM.
